Measured values reported in ChEMBL document CHEMBL1201862, “PubChem BioAssay data set” (2004).
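Compound exposure: 48 hours, 5 concentrations, 96-well plates. GI50: concentration for 50% inhibition of growth.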 Active and inactive are the calls of the source. No stated cut-off is given here; in the data, active = GI50 up to about 1.1 µM and inactive = higher.

Experiments:
Assay in all cases: NCI tumour cell line growth inhibition, 48 h
COLO 205 = tested on: COLO 205
A549 = tested on: A549
KM12 = tested on: KM12
SNB-19 = tested on: SNB-19
Malme-3M = tested on: Malme-3M
SNB-75 = tested on: SNB-75
SW-620 = tested on: SW-620
SK-MEL-28 = tested on: SK-MEL-28
RPMI-8226 = tested on: RPMI-8226
DMS-114 = tested on: DMS-114
NCI-H522 = tested on: NCI-H522
HOP-62 = tested on: HOP-62
CCRF-CEM = tested on: CCRF-CEM
RXF 393 = tested on: RXF 393
UACC-62 = tested on: UACC-62
A498 = tested on: A498
OVCAR-4 = tested on: OVCAR-4
MDA-MB-231 = tested on: MDA-MB-231
DU-145 = tested on: DU-145
MCF7 = tested on: MCF7

Measured: GI50

CC(=O)OC1[C@H]2c3cc4c(cc3CN3CCC(C[C@@H]1OC(C)=O)C23)OCO4 (stereo partly drawn)
inactive: COLO 205 > 75 µM | A549 > 75 µM | KM12 > 75 µM | SNB-19 > 75 µM | Malme-3M > 75 µM | SNB-75 > 75 µM | SW-620 > 75 µM | SK-MEL-28 > 75 µM | RPMI-8226 > 75 µM | DMS-114 > 75 µM | NCI-H522 > 75 µM | HOP-62 > 75 µM | CCRF-CEM > 75 µM | RXF 393 > 75 µM | UACC-62 > 75 µM

c1ccc(N2CCN(CCN3CCc4c([nH]c5ccccc45)C3c3cccnc3)CC2)cc1 (stereo not drawn)
inactive: A549 > 100 µM | KM12 > 100 µM | SNB-19 > 100 µM | A498 > 100 µM | SNB-75 3.07 µM | OVCAR-4 > 100 µM | SW-620 > 100 µM | SK-MEL-28 > 100 µM | RPMI-8226 > 100 µM | DMS-114 > 100 µM | NCI-H522 > 100 µM | HOP-62 89.1 µM | CCRF-CEM > 100 µM | UACC-62 > 100 µM

COC(=O)/C=C1\CCC2[C@@H](C(=O)CC3[C@]2(C)CCC[C@@]3(C)C(=O)OC)C1C (stereo partly drawn)
inactive: COLO 205 17.3 µM | A549 20.2 µM | KM12 17.1 µM | SNB-19 32.4 µM | A498 34.7 µM | Malme-3M 21.1 µM | SNB-75 18.5 µM | OVCAR-4 22.5 µM | SW-620 26.6 µM | SK-MEL-28 16.3 µM | RPMI-8226 3.93 µM | DMS-114 16.1 µM | NCI-H522 16.5 µM | HOP-62 28.9 µM | CCRF-CEM 9.2 µM | UACC-62 13.6 µM

CCOP(=O)(OCC)/C(C#N)=C/c1ccco1
inactive: COLO 205 > 100 µM | A549 > 100 µM | KM12 > 100 µM | A498 > 100 µM | Malme-3M > 100 µM | SNB-75 > 100 µM | OVCAR-4 > 100 µM | SW-620 > 100 µM | SK-MEL-28 > 100 µM | RPMI-8226 > 100 µM | DMS-114 > 100 µM | NCI-H522 > 100 µM | HOP-62 > 100 µM | CCRF-CEM > 100 µM | UACC-62 > 100 µM

O=C(O)c1c2c(cc3c1CC(Cc1ccccc1)C3=O)CCC2 (stereo not drawn)
inactive: COLO 205 > 100 µM | A549 19.5 µM | MDA-MB-231 30.5 µM | DU-145 > 100 µM | KM12 65.8 µM | SNB-19 > 100 µM | A498 > 100 µM | Malme-3M > 100 µM | SNB-75 > 100 µM | OVCAR-4 > 100 µM | SW-620 > 100 µM | SK-MEL-28 > 100 µM | RPMI-8226 39.7 µM | MCF7 > 100 µM | NCI-H522 74.6 µM | HOP-62 > 100 µM | CCRF-CEM 43.7 µM | RXF 393 > 100 µM | UACC-62 > 100 µM

O=[N+]([O-])c1ccc(-c2ccc(-c3csc(Nc4ccccc4)n3)o2)cc1
inactive: COLO 205 20.9 µM | A549 > 55 µM | KM12 19.3 µM | SNB-19 40 µM | A498 17.9 µM | Malme-3M 17 µM | SNB-75 24.9 µM | OVCAR-4 17.3 µM | SW-620 15.6 µM | SK-MEL-28 17.6 µM | RPMI-8226 12.2 µM | DMS-114 25.7 µM | NCI-H522 14.6 µM | HOP-62 > 68.4 µM | CCRF-CEM 2.93 µM | UACC-62 21.3 µM

COc1cccc(NC(=O)CC(=O)N2NC(c3ccccc3)C(/N=N/c3cccc(C(=O)O)c3)C2=O)c1 (stereo not drawn)
inactive: COLO 205 > 10 µM | A549 > 100 µM | KM12 39.4 µM | SNB-19 28.1 µM | A498 > 100 µM | Malme-3M > 100 µM | SNB-75 > 100 µM | OVCAR-4 > 100 µM | SW-620 > 100 µM | SK-MEL-28 > 100 µM | RPMI-8226 70 µM | DMS-114 > 100 µM | HOP-62 > 100 µM | RXF 393 49.5 µM | UACC-62 30.5 µM

O=C(N/N=C/c1ccc([N+](=O)[O-])o1)c1ccc(C(=O)N/N=C/c2ccc([N+](=O)[O-])o2)cc1
inactive: COLO 205 28.1 µM | A549 45.5 µM | MDA-MB-231 > 100 µM | DU-145 64.4 µM | KM12 28.5 µM | SNB-19 51.4 µM | A498 8.87 µM | Malme-3M 21.2 µM | SNB-75 > 100 µM | OVCAR-4 45 µM | SW-620 22.4 µM | SK-MEL-28 13.2 µM | RPMI-8226 2.55 µM | MCF7 15.7 µM | NCI-H522 48.3 µM | HOP-62 47.8 µM | CCRF-CEM 14.8 µM | RXF 393 36.6 µM | UACC-62 13.8 µM

O=C1C2Nc3ccccc3SC2C(=O)N1c1ccccc1C(F)(F)F (stereo not drawn)
inactive: A549 20.2 µM | KM12 10.1 µM | SNB-19 18.1 µM | Malme-3M 19.7 µM | OVCAR-4 43.1 µM | SW-620 21.4 µM | SK-MEL-28 51.9 µM | RPMI-8226 29 µM | DMS-114 40.7 µM | NCI-H522 15.3 µM | HOP-62 25.4 µM | CCRF-CEM 15.2 µM | RXF 393 7.45 µM | UACC-62 19 µM

COc1ccc(/C=C/C(=N/NC(=O)N/N=C(/C=C/c2ccc(OC)cc2)C(C)C)C(C)C)cc1
inactive: COLO 205 43.7 µM | A549 45.3 µM | MDA-MB-231 > 100 µM | DU-145 80.2 µM | KM12 51.2 µM | SNB-19 > 100 µM | A498 > 100 µM | Malme-3M 62.8 µM | SNB-75 > 100 µM | OVCAR-4 > 100 µM | SW-620 > 100 µM | SK-MEL-28 > 100 µM | RPMI-8226 33.2 µM | MCF7 64.6 µM | NCI-H522 63.1 µM | HOP-62 22 µM | CCRF-CEM 48.9 µM | RXF 393 > 100 µM | UACC-62 > 100 µM

CCOC(=O)/C(=C\c1cccs1)P(=O)(OCC)OCC
inactive: COLO 205 16 µM | A549 21 µM | KM12 17.1 µM | SNB-19 53.2 µM | Malme-3M 22.7 µM | SNB-75 35.6 µM | OVCAR-4 19 µM | SW-620 20 µM | SK-MEL-28 17.2 µM | RPMI-8226 20.4 µM | DMS-114 21.5 µM | NCI-H522 14.2 µM | HOP-62 48.2 µM | CCRF-CEM 29.9 µM | RXF 393 15.1 µM | UACC-62 16.4 µM

CSC(C1c2ccccc2N(C)c2[nH]c(=O)n(C)c(=O)c21)S(=O)(=O)c1ccc(C)cc1 (stereo not drawn)
inactive: COLO 205 > 100 µM | A549 > 100 µM | SNB-19 > 100 µM | A498 > 100 µM | Malme-3M > 100 µM | SNB-75 68.5 µM | OVCAR-4 > 100 µM | SW-620 > 100 µM | SK-MEL-28 > 100 µM | RPMI-8226 > 10 µM | DMS-114 > 100 µM | NCI-H522 20.1 µM | HOP-62 > 100 µM | CCRF-CEM 33.3 µM | UACC-62 > 100 µM
